Where two headings read alike, the source gives them in different places.
Experiment: Rat PK study #3 (ABBV-744 IV 1 mg/kg and PO 5 mg/kg)
Format: in vivo, SD rats
Conditions: male, Sprague-Dawley, rat, plasma, SD rats, DMSO/PEG-400/Milli-Q water formulation; for C0: read-out: C0; for MRT inf: read-out: MRTInf_obs; for Tmax: read-out: Tmax
Experimental: For the third rat pharmacokinetic study, the pharmacokinetics of ABBV-744 were assessed in male SD rats for comparison to Compound A. ABBV-744 was prepared in a formulation of 5% DMSO, 40% PEG-400, and 55% Milli-Q water (see Table 2D for formulation) and delivered to animals orally (PO) at a dose of 5 mg/kg, or intravenously (IV) at a dose of 1 mg/kg. Animals in each group (n=3) were then monitored over a 24-hour period.
Blood samples (~0.2 mL) were collected according to a schedule (IV administration: 0.033, 0.083, 0.25, 0.5, 1, 2, 4, and 8 h following the initial dosing; PO administration: 0.083, 0.25, 0.5, 1, 2, 4, 8, and 24 h following the initial dosing) by jugular vein by cannulation except for the dosing vein (for IV group), and EDTA-K2 was used as anticoagulant. Within 30 minutes of collection, the samples were centrifuged at approximately 4000 times g-force for 5 minutes at 4° C. to obtain blood plasma. The plasma samples were immediately divided into two aliquots (~75 µL each), transferred to a cryogenic vial, and stored in a freezer at −75±15° C. prior to analysis.
The concentration of ABBV-744 in plasma samples was determined by liquid chromatography-mass spectrometry (LC-MS/MS) using a Shimadzu HPLC(DGU-405; LC-40D XS CN; SIL-40C XSCN; Plate Changer CN; CTO-40C CN; and CBM-40 CN) and an AB API 5500+LC/MS/MS instrument. Samples were analyzed on an Agilent Poroshell Bonus RP 2.7 μm (50×2.1 mm) column. Solution A in the mobile phase was 95% water (0.1% formic acid) and solution B was 95% acetonitrile in water (0.1% formic acid), injection volume was 6 μL, and flow rate was 0.6 mL/min.
To prepare samples for analysis, serial concentrations were prepared by diluting the stock solution of analyte with a 50% acetonitrile in water solution. 5 μL working solutions (5, 10, 20, 50, 100, 500, 1000, 5000, and 10000 ng/mL) were added to 50 μL of the blank SD rat plasma to achieve calibration standards of ~0.5 to 1000 ng/ml (0.5, 1, 2, 5, 10, 50, 100, 500, and 1000 ng/ml) in a total volume of 55 μL. Five quality control samples at 1 ng/ml, 2 ng/ml, 5 ng/ml, 50 ng/mL, and 800 ng/ml for plasma were prepared independently of those used for the calibration curves. These QC samples were prepared on the day of analysis in the same way as calibration standards.
55 μL of standards, 55 μL of QC samples and 55 μL of unknown samples (50 μL of unknown rat plasma with 5 µL of blank solution) were added to 200 µL of acetonitrile containing IS mixture (verapamil) for precipitating protein respectively. The samples were then vortexed for 30 s. After centrifugation at 4° C., 3900 rpm for 15 min, the supernatant was diluted 3 times with water. 6 μL of diluted supernatant was injected into the LC/MS/MS system for quantitative analysis.

[1] = iv, 1 mg/kg, IV 1 mg/kg, individual animals
[2] = iv, 1 mg/kg, IV 1 mg/kg, mean of 3 animals
[3] = po, 5 mg/kg, PO 5 mg/kg, mean of 3 animals

- concentration at 0.083 h [1]: 351 ng/mL
- concentration at 0.083 h [2]: 337 ng/mL
- concentration at 0.25 h [1]: 248 ng/mL
- concentration at 0.25 h [2]: 268 ng/mL
- concentration at 0.5 h [1]: 191 ng/mL
- concentration at 0.5 h [2]: 203 ng/mL
- concentration at 1 h [1]: 158 ng/mL
- concentration at 1 h [2]: 154 ng/mL
- concentration at 2 h [1]: 103 ng/mL
- concentration at 2 h [2]: 110 ng/mL
- concentration at 4 h [1]: 48 ng/mL
- concentration at 4 h [2]: 52.9 ng/mL
- concentration at 8 h [1]: 12.6 ng/mL
- concentration at 8 h [2]: 15.3 ng/mL
- AUC(0-inf) [1]: 669 ng·h/mL
- AUC(0-t) [1]: 633 ng·h/mL
- half-life [1]: 1.99 h
- C0 [1]: 580 ng/mL
- MRT inf [1]: 2.47 h
- AUC(0-inf) [2]: 716 ng·h/mL
- AUC(0-t) [2]: 668 ng·h/mL
- half-life [2]: 2.12 h
- C0 [2]: 613 ng/mL
- MRT inf [2]: 2.65 h
- concentration at 0.083 h [3]: 1.61 ng/mL
- concentration at 0.25 h [3]: 19.3 ng/mL
- concentration at 0.5 h [3]: 43 ng/mL
- concentration at 1 h [3]: 59 ng/mL
- concentration at 2 h [3]: 89 ng/mL
- concentration at 4 h [3]: 127 ng/mL
- concentration at 8 h [3]: 113 ng/mL
- concentration at 24 h (po, 5 mg/kg, PO 5 mg/kg, 24 h, mean of 3 animals): 2.17 ng/mL
- Tmax (po, 5 mg/kg, PO 5 mg/kg, individual animals): 8 h
- AUC(0-t) [3]: 1730 ng·h/mL
- Cmax (po, 5 mg/kg, PO 5 mg/kg, mean of 3 animals, read-out: Cmax): 132 ng/mL
- Tmax [3]: 5.33 h
SMILES: CCNC(=O)c1cc2c(-c3cc(C(C)(C)O)ccc3Oc3c(C)cc(F)cc3C)cn(C)c(=O)c2[nH]1 [ABBV-744]
